Source: patent publication US20230265151A1, “GIP/GLP1 CO-AGONIST COMPOUNDS” (priority 2020, published 2023)
Where two headings read alike, the source gives them in different places.

Key:
[1] = target: T1, hGCGR (Homo sapiens, UniProt P47871); assay: Functional cAMP formation (HTRF) in HEK-293 clonal cells expressing hGCGR, 0.1% bovine casein, without or with 1.0% human serum albumin; type: cell-based
T1 construct: expressed in transfected cells
Summary of the method: (§1)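 Readings of the HTRF 665/620 nm ratio, which falls as cAMP rises, were converted to nM cAMP using a standard curve after 30 min peptide exposure at 37° C.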

[2] = target: T2, hGIPR (Homo sapiens, UniProt P48546); assay: Functional cAMP formation (HTRF) in HEK-293 clonal cells expressing hGIPR, 0.1% bovine casein, without or with 1.0% human serum albumin; type: cell-based
T2 construct: expressed in transfected cells
T2 sequence (P48546 22-466): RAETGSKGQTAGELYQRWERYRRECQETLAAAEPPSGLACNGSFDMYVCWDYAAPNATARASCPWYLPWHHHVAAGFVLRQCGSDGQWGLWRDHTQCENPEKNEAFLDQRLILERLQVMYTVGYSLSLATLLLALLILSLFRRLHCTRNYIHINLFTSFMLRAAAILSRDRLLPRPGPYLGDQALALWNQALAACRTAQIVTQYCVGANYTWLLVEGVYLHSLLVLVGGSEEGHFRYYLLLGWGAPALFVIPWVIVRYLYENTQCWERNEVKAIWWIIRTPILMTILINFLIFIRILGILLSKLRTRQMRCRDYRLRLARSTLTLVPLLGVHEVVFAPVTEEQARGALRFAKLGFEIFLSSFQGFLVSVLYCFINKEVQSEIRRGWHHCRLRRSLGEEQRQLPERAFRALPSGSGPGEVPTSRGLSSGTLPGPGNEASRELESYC
Summary of the method: as §1

[3] = target: T3, human GIP receptor (hGIPR) (Homo sapiens, UniProt P48546); assay: [125I]-GIP binding, SPA with membranes of CHO cells expressing hGIPR
T3 construct: expressed in transfected cells; crude membranes
T3 sequence (P48546 22-466): T2 sequence (P48546 22-466)

[4] = target: T4, human Gcg receptor (hGcgR) (Homo sapiens, UniProt P47871); assay: [125I]-Glucagon binding, SPA with membranes of HEK293 cells expressing hGcgR
T4 construct: expressed in transfected cells; crude membranes

[5] = target: hGLP-1R (Homo sapiens, UniProt P43220); assay: Functional cAMP formation (HTRF) in HEK-293 clonal cells expressing hGLP-1R, 0.1% bovine casein, without or with 1.0% human serum albumin; type: cell-based; design: expressed in transfected cells
Summary of the method: as §1

[6] = target: T5, human GLP-1 receptor (hGLP-1R) (Homo sapiens, UniProt P43220); assay: [125I]-GLP-1 binding, SPA with membranes of HEK293 cells expressing hGLP-1R; settings: human GLP-1R; geometric mean (SEM, n); read-out: Binding Affinity Ki, nM (SEM, n) hGLP-1R
T5 construct: expressed in transfected cells; crude membranes

[7] = hGCGR EC50, nM (SEM, n), cAMP, incubated at 37° C., 0.1% bovine casein (no human serum albumin), geometric mean
[8] = hGIPR EC50, nM (SEM, n), cAMP, incubated at 37° C., 0.1% bovine casein (no human serum albumin), geometric mean
[9] = human GcgR, geometric mean (SEM, n), read-out: Binding Affinity Ki, nM (SEM, n) hGCGR

hGLP-1R, sequence (P43220 24-463): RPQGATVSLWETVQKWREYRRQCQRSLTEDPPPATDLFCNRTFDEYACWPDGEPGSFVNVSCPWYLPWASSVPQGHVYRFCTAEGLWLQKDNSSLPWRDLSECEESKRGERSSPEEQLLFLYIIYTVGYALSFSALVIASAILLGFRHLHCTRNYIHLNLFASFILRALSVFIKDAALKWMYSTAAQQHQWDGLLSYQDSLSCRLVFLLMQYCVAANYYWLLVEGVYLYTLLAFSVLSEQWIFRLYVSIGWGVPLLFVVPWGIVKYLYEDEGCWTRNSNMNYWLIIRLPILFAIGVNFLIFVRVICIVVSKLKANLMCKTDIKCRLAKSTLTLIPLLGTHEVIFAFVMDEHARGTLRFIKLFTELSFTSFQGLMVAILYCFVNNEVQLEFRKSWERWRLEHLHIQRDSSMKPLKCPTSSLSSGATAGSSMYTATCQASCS
T4 sequence (P47871 26-477): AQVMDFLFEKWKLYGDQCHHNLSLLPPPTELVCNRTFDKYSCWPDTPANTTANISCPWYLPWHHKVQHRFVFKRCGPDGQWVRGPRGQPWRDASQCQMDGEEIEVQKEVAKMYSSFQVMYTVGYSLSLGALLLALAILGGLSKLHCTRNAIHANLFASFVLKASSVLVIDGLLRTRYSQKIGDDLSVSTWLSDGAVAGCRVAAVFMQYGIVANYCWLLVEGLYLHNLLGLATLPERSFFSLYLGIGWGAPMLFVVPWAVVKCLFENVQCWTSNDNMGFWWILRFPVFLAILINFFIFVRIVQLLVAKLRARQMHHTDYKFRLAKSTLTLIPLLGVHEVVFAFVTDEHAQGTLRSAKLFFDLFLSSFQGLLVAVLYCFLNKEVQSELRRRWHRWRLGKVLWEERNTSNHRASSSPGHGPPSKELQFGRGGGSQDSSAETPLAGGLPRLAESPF
T1 sequence (P47871 26-477): as above
T5 sequence (P43220 24-463): as the sequence (P43220 24-463) above

## CC[C@H](C)[C@H](NC(=O)[C@H](CC(C)C)NC(=O)[C@](C)(Cc1ccc(O)cc1)NC(=O)[C@H](CCCCNC(=O)COCCOCCNC(=O)COCCOCCNC(=O)CC[C@H](NC(=O)CCCCCCCCCOc1ccc(C(=O)O)cc1)C(=O)O)NC(=O)[C@@H](NC(=O)[C@H](Cc1ccccc1)NC(=O)[C@H](CCC(=O)O)NC(=O)C(C)(C)NC(=O)[C@H](CCC(N)=O)NC(=O)[C@H](C)NC(=O)[C@H](CCCCNC(=O)COCCOCCNC(=O)COCCOCCNC(=O)CC[C@H](NC(=O)CCCCCCCCCOc1ccc(C(=O)O)cc1)C(=O)O)NC(=O)[C@H](CCCN)NC(=O)[C@H](CC(=O)O)NC(=O)[C@H](CC(C)C)NC(=O)[C@](C)(CC(C)C)NC(=O)[C@@H](NC(=O)[C@H](CO)NC(=O)[C@H](Cc1ccncc1)NC(=O)[C@H](CC(=O)O)NC(=O)[C@H](CO)NC(=O)[C@@H](NC(=O)[C@](C)(Cc1ccccc1F)NC(=O)[C@@H](NC(=O)CNC(=O)[C@H](CCC(=O)O)NC(=O)C(C)(C)NC(=O)[C@@H](N)Cc1ccc(O)cc1)[C@@H](C)O)[C@@H](C)O)[C@@H](C)CC)[C@@H](C)CC)C(=O)N[C@@H](CCC(=O)O)C(=O)NCC(=O)NCC(=O)N1CCC[C@H]1C(=O)N[C@@H](CO)C(=O)N[C@@H](CO)C(=O)NCC(=O)N[C@@H](C)C(=O)N1CCC[C@H]1C(=O)N1CCC[C@H]1C(=O)N1CCC[C@H]1C(=O)N[C@@H](CO)C(N)=O [Example 128]
[1]; [7]
  EC50: > 9950 nM
[2]; HEK293, read-out: hGIPR Emax, % ± SEM, percent of maximal response to GIP(1-42)NH2, 37° C., 0.1% bovine casein, arithmetic mean
  Emax: 98.5 ± 2.47%
[2]; [8]
  EC50: 0.0232 nM
[3]
  Ki: 0.0314 nM
[4]
  Ki: > 955 nM

## CC[C@H](C)[C@H](NC(=O)[C@H](CC(C)C)NC(=O)[C@](C)(Cc1ccc(O)cc1)NC(=O)[C@@H](CCC(=O)O)NC(=O)[C@@H](NC(=O)[C@H](Cc1ccccc1)NC(=O)[C@H](CCCCNC(=O)COCCOCCNC(=O)COCCOCCNC(=O)CC[C@H](NC(=O)CCCCCCCCCCCCC(=O)O)C(=O)O)NC(=O)C(C)(C)NC(=O)[C@H](CCC(N)=O)NC(=O)[C@H](C)NC(=O)[C@H](CCC(N)=O)NC(=O)[C@H](CCCN)NC(=O)[C@H](CC(=O)O)NC(=O)[C@H](CC(C)C)NC(=O)[C@](C)(CC(C)C)NC(=O)[C@@H](NC(=O)C(C)(C)NC(=O)[C@H](Cc1ccncc1)NC(=O)[C@H](CC(=O)O)NC(=O)[C@H](CO)NC(=O)[C@@H](NC(=O)[C@](C)(Cc1ccccc1F)NC(=O)[C@@H](NC(=O)CNC(=O)[C@H](CCC(=O)O)NC(=O)C(C)(C)NC(=O)[C@@H](N)Cc1ccc(O)cc1)[C@@H](C)O)[C@@H](C)O)[C@@H](C)CC)[C@@H](C)CC)C(=O)N[C@@H](CCCCNC(=O)COCCOCCNC(=O)COCCOCCNC(=O)CC[C@H](NC(=O)CCCCCCCCCCCCC(=O)O)C(=O)O)C(=O)NCC(=O)NCC(=O)N1CCC[C@H]1C(=O)N[C@@H](CO)C(=O)N[C@@H](CO)C(=O)NCC(=O)N[C@@H](C)C(=O)N1CCC[C@H]1C(=O)N1CCC[C@H]1C(=O)N1CCC[C@H]1C(=O)N[C@@H](CO)C(N)=O [Example 488]
[1]; cAMP, 37° C., 0.1% bovine casein (no human serum albumin), geometric mean, read-out: hGCGR EC50, nM (SEM, n)
  EC50: > 10100 nM
[1]; cAMP, 37° C., 0.1% bovine casein and 1.0% human serum albumin, geometric mean (SEM, n), read-out: hGCGR EC50, nM (SEM, n)
  EC50: > 9950 nM
[2]; HEK293, cAMP, 37° C., 0.1% bovine casein and 1.0% human serum albumin, percent of maximal response to GIP(1-42)NH2, read-out: hGIPR Emax, % ± SEM
  Emax: 85.5%
[2]; cAMP, 37° C., 0.1% bovine casein (no human serum albumin), geometric mean, read-out: hGIPR EC50, nM (SEM, n)
  EC50: 0.0115 nM
[2]; cAMP, 37° C., 0.1% bovine casein and 1.0% human serum albumin, geometric mean (SEM, n), read-out: hGIPR EC50, nM (SEM, n)
  EC50: 0.718 nM
[5]; HEK293, cAMP, 37° C., 0.1% bovine casein, percent of maximal response to GLP-1(7-36)NH2, arithmetic mean, read-out: hGLP-1R Emax, % ± SEM
  Emax: 113%
[5]; cAMP, 37° C., 0.1% bovine casein (no human serum albumin), geometric mean, read-out: hGLP-1R EC50, nM (SEM, n)
  EC50: 0.207 nM
[5]; cAMP, 37° C., 0.1% bovine casein and 1.0% human serum albumin, geometric mean (SEM, n), read-out: hGLP-1R EC50, nM (SEM, n)
  EC50: 13 nM
[3]; human GIPR, geometric mean (SEM, n), read-out: Binding Affinity Ki, nM (SEM, n) hGIPR
  Ki: 0.064 nM
[4]; [9]
  Ki: > 958 nM

## CC[C@H](C)[C@H](NC(=O)[C@H](CC(C)C)NC(=O)[C@](C)(Cc1ccc(O)cc1)NC(=O)[C@@H](CCC(=O)O)NC(=O)[C@@H](NC(=O)[C@H](Cc1ccccc1)NC(=O)[C@H](CCC(=O)O)NC(=O)C(C)(C)NC(=O)[C@H](CCC(N)=O)NC(=O)[C@H](C)NC(=O)[C@H](CCCCNC(=O)COCCOCCNC(=O)CC[C@H](NC(=O)CCCCCCCCCOc1ccc(C(=O)O)cc1)C(=O)O)NC(=O)[C@H](CCCN)NC(=O)[C@H](CC(=O)O)NC(=O)[C@H](CC(C)C)NC(=O)[C@](C)(CC(C)C)NC(=O)[C@@H](NC(=O)[C@H](CO)NC(=O)[C@H](Cc1ccncc1)NC(=O)[C@H](CC(=O)O)NC(=O)[C@H](CO)NC(=O)[C@@H](NC(=O)[C@](C)(Cc1ccccc1F)NC(=O)[C@@H](NC(=O)CNC(=O)[C@H](CCC(=O)O)NC(=O)C(C)(C)NC(=O)[C@@H](N)Cc1ccc(O)cc1)[C@@H](C)O)[C@@H](C)O)[C@@H](C)CC)[C@@H](C)CC)C(=O)N[C@@H](CCC(=O)O)C(=O)NCC(=O)NCC(=O)N[C@@H](CCCCNC(=O)COCCOCCNC(=O)CC[C@H](NC(=O)CCCCCCCCCOc1ccc(C(=O)O)cc1)C(=O)O)C(=O)N[C@@H](CO)C(=O)N[C@@H](CO)C(=O)NCC(=O)N[C@@H](C)C(=O)N1CCC[C@H]1C(=O)N1CCC[C@H]1C(=O)N1CCC[C@H]1C(=O)N[C@@H](CO)C(N)=O [Example 12]
[1]; hGCGR EC50, nM (SEM, n), 0.1% bovine casein and 1.0% human serum albumin, 37° C., geometric mean
  EC50: > 9950 nM
[1]; [7]
  EC50: > 9950 nM
[2]; hGIPR EC50, nM (SEM, n), 0.1% bovine casein and 1.0% human serum albumin, 37° C., geometric mean
  EC50: 0.745 nM
[2]; [8]
  EC50: 0.0127 nM
[5]; hGLP-1R EC50, nM (SEM, n), 0.1% bovine casein and 1.0% human serum albumin, 37° C., geometric mean
  EC50: 20.3 nM
[3]
  Ki: 0.0575 nM
[4]
  Ki: 213 nM

## CC[C@H](C)[C@H](NC(=O)[C@H](CC(C)C)NC(=O)[C@](C)(Cc1ccc(O)cc1)NC(=O)[C@@H](CCC(=O)O)NC(=O)[C@@H](NC(=O)[C@H](Cc1ccccc1)NC(=O)[C@H](CCC(=O)O)NC(=O)C(C)(C)NC(=O)[C@H](CCC(N)=O)NC(=O)[C@H](C)NC(=O)[C@H](CCCCNC(=O)COCCOCCNC(=O)COCCOCCNC(=O)CC[C@H](NC(=O)CCCCCCCCCCCCC(=O)O)C(=O)O)NC(=O)[C@H](CCCN)NC(=O)[C@H](CC(=O)O)NC(=O)[C@H](CC(C)C)NC(=O)[C@](C)(CC(C)C)NC(=O)[C@@H](NC(=O)[C@H](CO)NC(=O)[C@@](C)(NC(=O)[C@H](CC(=O)O)NC(=O)[C@H](CO)NC(=O)[C@@H](NC(=O)[C@](C)(Cc1ccccc1F)NC(=O)[C@@H](NC(=O)CNC(=O)[C@H](CCC(=O)O)NC(=O)C(C)(C)NC(=O)[C@@H](N)Cc1ccc(O)cc1)[C@@H](C)O)[C@@H](C)O)C(C)C)[C@@H](C)CC)[C@@H](C)CC)C(=O)N[C@@H](CCC(=O)O)C(=O)NCC(=O)NCC(=O)N[C@@H](CCCCNC(=O)COCCOCCNC(=O)COCCOCCNC(=O)CC[C@H](NC(=O)CCCCCCCCCCCCC(=O)O)C(=O)O)C(=O)N[C@@H](CO)C(=O)N[C@@H](CO)C(=O)NCC(=O)N[C@@H](C)C(=O)N1CCC[C@H]1C(=O)N1CCC[C@H]1C(=O)N1CCC[C@H]1C(=O)N[C@@H](CO)C(N)=O [Example 52]
[6]
  Ki: 1.16 nM
[1]; 0.1% bovine casein and 1.0% human serum albumin, 37° C., geometric mean, read-out: hGCGR EC50, nM (SEM, n)
  EC50: > 9950 nM
[1]; cAMP, incubated at 37° C., 0.1% bovine casein (no human serum albumin), geometric mean, read-out: hGCGR EC50, nM (SEM, n)
  EC50: > 9950 nM
[2]; HEK293, 0.1% bovine casein and 1.0% human serum albumin, 37° C., percent of maximal response to GIP(1-42)NH2, read-out: hGIPR Emax, % ± SEM
  Emax: 87.6%
[5]; cAMP, incubated at 37° C., 0.1% bovine casein (no human serum albumin), geometric mean, read-out: hGLP-1R EC50, nM (SEM, n)
  EC50: 0.384 nM
[4]; [9]
  Ki: > 966 nM
